Source: patent US6448279B1, “Isothiazolone/amine oxide wood preservatives” (Lonza Inc., priority 1999, dated 2002)

What was measured:
Assay in all cases: agar dilution plate method, percent retardation of wood rot fungi
Format in all cases: cell-based
[1] = test system: C. globosum (soft rot decay fungi)
Experimental: (§1) The efficacy of aqueous 1,2-benzisothiazolone/amine oxide solutions containing the amine oxides in Table 1 against the wood rot fungi T. versicolor (white rot fungi), G. trabeum (brown rot fungi), P. placenta (brown rot fungi), and C. globosum (soft rot decay fungi) were determined using the agar dilution plate method well known in the art. The water in the solution was evaporated to form an agar/biocide mixture and then tested. Each solution was tested at dilutions ranging from 10 to 5000 ppm of benzisothiazolone. The weight ratio of amine oxide to 1,2-benzisothiazolone was either 20:1 or 10:1 in each solution. The percent retardation of the fungi was determined by the percentage change in the diameter of the fungi on the agar plate (i.e. Percent Retardation=((Diameter of Control)−(Diameter of Treated Fungi))/(Diameter of Control)* 100%).
(§2) The efficacy of aqueous 4,5-dichloro-2-n-octyl-3-isothiazolone/amine oxide solutions containing the amine oxides in Table 2 against the wood rot fungi T. versicolor (white not fungi), G. trabeum (brown rot fungi), P. placenta (brown rot fungi), and C. globosum (soft rot decay fungi) were determined as described in Example 6.

[2] = test system: G. trabeum (brown rot fungi)
Experimental: as §1, §2

[3] = test system: P. placenta (brown rot fungi)
Experimental: as §1, §2

[4] = test system: T. versicolor (white rot fungi)
Experimental: as §1, §2

[5] = no amine oxide, 4,5-dichloro-2-n-octyl-isothiazolone 0.5 ppm
[6] = no amine oxide, 4,5-dichloro-2-n-octyl-isothiazolone 5 ppm
[7] = no amine oxide, 4,5-dichloro-2-n-octyl-isothiazolone 50 ppm
[8] = no amine oxide, 4,5-dichloro-2-n-octyl-isothiazolone 100 ppm
[9] = no amine oxide, 4,5-dichloro-2-n-octyl-isothiazolone 250 ppm
[10] = no amine oxide, 4,5-dichloro-2-n-octyl-isothiazolone 500 ppm
[11] = no amine oxide, 4,5-dichloro-2-n-octyl-isothiazolone 750 ppm

CCCCCCCCn1sc(Cl)c(Cl)c1=O [4,5-dichloro-2-n-octyl-isothiazolone, 4,5-dichloro-2-n-octyl-3-isothiazolone]
Percent Retardation C. globosum [1, 5]: 63% | Percent Retardation C. globosum [1, 6]: 60% | Percent Retardation C. globosum [1, 7]: 67% | Percent Retardation C. globosum [1, 8]: 78% | Percent Retardation C. globosum [1, 9]: 89% | Percent Retardation C. globosum [1, 10]: 100% | Percent Retardation C. globosum [1, 11]: 100% | Percent Retardation G. trabeum [2, 5]: 11% | Percent Retardation G. trabeum [2, 6]: 63% | Percent Retardation G. trabeum [2, 7]: 83% | Percent Retardation G. trabeum [2, 8]: 85% | Percent Retardation G. trabeum [2, 9]: 87% | Percent Retardation G. trabeum [2, 10]: 88% | Percent Retardation G. trabeum [2, 11]: 100% | Percent Retardation P. placenta [3, 5]: 42% | Percent Retardation P. placenta [3, 6]: 83% | Percent Retardation P. placenta [3, 7]: 100% | Percent Retardation P. placenta [3, 8]: 100% | Percent Retardation P. placenta [3, 9]: 100% | Percent Retardation P. placenta [3, 10]: 100% | Percent Retardation T Versicolor [4, 5]: 12% | Percent Retardation T Versicolor [4, 6]: 51% | Percent Retardation T Versicolor [4, 7]: 82% | Percent Retardation T Versicolor [4, 8]: 87% | Percent Retardation T Versicolor [4, 9]: 87% | Percent Retardation T Versicolor [4, 10]: 88% | Percent Retardation T Versicolor [4, 11]: 100%
